Reference: patent publication US20240228491A1, “METHIONINE ADENOSYLTRANSFERASE INHIBITOR, PREPARATION METHOD THEREFOR AND APPLICATION THEREOF” (SCINNOHUB PHARMACEUTICAL CO., LTD., priority 2021, published 2024)

Experiments:
[1] = In vivo pharmacokinetic study in ICR mice; conditions: plasma; for AUC(0-t): read-out: Area under curve AUC(0-t); for Cmax: read-out: Maximal concentration Cmax
Experimental: Species: ICR mice, SPF grade. Source: Shanghai Xipuer-Bikai Laboratory Animal Co., Ltd. Number: 3 mice per dosage form.
(§1) 2.1 An appropriate amount of the test sample was accurately weighed, into which 5% DMSO, 10% polyethylene glycol-15 hydroxystearate, 85% normal saline (all in volume percent) were added sequentially, and were fully mixed via vortex or ultrasound, to obtain the dosing solution with a test sample concentration of 0.4 mg/mL for intravenous administration.
as §1, with “2.2” for “2.1”, “1” for “0.4”, “oral gavage” for “intravenous”
(§2) Weighing was performed before administration, and the administration amount was calculated according to the body weight. The drug was administered orally by gavage or intravenously.
Before and 0.083 h, 0.25 h, 0.5 h, 1 h, 2 h, 4 h, 6 h, 8 h, 24 h after administration.
Blood was collected via submandibular vein or other suitable means, and approximately 0.03 mL per sample was collected via anticoagulation with heparin sodium. Blood samples were placed on ice after collection and centrifuged to separate plasma within 1 h (centrifugation conditions: centrifugal force of 6800 g, 6 min, 2-8° C.). The collected plasma samples were stored in a −80° C. refrigerator before analysis, and the remaining plasma samples continued to be stored in a −80° C. refrigerator for temporary storage after analysis.
When plot the plasma concentration-time curve according to the detected plasma concentration of the test substance, BLQ (Beneath Limit of Quantification) was recorded as 0. When calculating pharmacokinetic parameters, the concentration before administration was calculated as 0; BLQ (including “No peak”) before Cmax was calculated as 0; BLQ (including “No peak”) after Cmax was not involved in the calculation. Pharmacokinetic parameters, such as AUC(0-t), T1/2, Cmax, etc., were calculated by WinNonlin using the plasma concentration data at different time points.

[2] = In vivo pharmacokinetic study in SD rats; conditions: SD rat, plasma; for AUC(0-t): read-out: Area under curve AUC(0-t); for half-life: read-out: Half life T1/2 (converted); for Cmax: read-out: Maximal concentration Cmax
Experimental: Species: SD rat. Source: Charles River Laboratory Animal Technology Co., Ltd. Number: 3 rats per dosage group.
as §1, with “1.1” for “2.1”, “0.2” for “0.4”
as §1, with “1.2” for “2.1”, “0.5” for “0.4”, “oral gavage” for “intravenous”
as §2
On the day of the test, 100 μL of blood was collected via the jugular sinus at each set time point, and the whole blood samples were placed in anticoagulation tubes containing EDTA-K2. Whole blood samples were centrifuged at 1500 g for 10 min to separate the plasma, and the upper plasma samples were collected into sample tubes. Biological samples were stored at −40° C. to −20° C. for analysis.
According to the requirements of SOP-BA-002 (Liquid Mass Spectrometry for biological sample analysis) of Suzhou 3D BioOptima New Drug Development Co., Ltd., an LC-MS/MS analytical method was established to determine the concentrations of compounds in rat plasma, and used to determine the concentrations of compounds in the biological samples obtained in this experiment.
Pharmacokinetic parameters were calculated using the non-compartment model of Pharsight Phoenix 8.0.

DOHH-2 cells = assay: Inhibitory activity test of DOHH-2 cells; assay type: cell-based; conditions: Homo sapiens, 120 h incubation, CellTiter-Glo, read-out: DOHH-2 cell inhibitory activity IC50
Experimental: On day 1, cell seeding: cells were resuspended to the desired density with DMEM complete medium (Gibico, Cat. No. 10569010) supplemented with 10% FBS (Gibco, 10099141C), mixed evenly, and added into the 384-well plate at 30 μL/well with a cell density of 800/well. The compounds to be tested were added as follows: 30 nL of DMSO solution containing the compound (the concentration of the compound in which was formulated as: 3-fold gradient dilution from 10 mM, 10 concentration points in total) was added, incubated for 120 h at 37° C., 5% CO2. On day 6, the cells treated with compounds were removed and equilibrated to room temperature, 30 μL of CellTiter-Glo (Promega company, Cat. No. G7573) reagent was added per well, and the cells were fully lysed by shaking at room temperature, and then incubated in dark at 37° C., 5% CO2 for 30 min, to detect the fluorescence intensity.
% Inhibition=100−(signal of the well with the compound to be tested−signal of the well with only medium and free of cells)/(signal of the well with cells but without the addition of the compound−signal of the well with only medium and free of cells)×100.
The log value of concentration was used as the X-axis and % Inhibition was used as the Y-axis, so as to fit the dose-effect curve and calculate the IC50 value using nonlinear regression (dose response−variable slope) in the analysis software GraphPad Prism 8.

With Nc1c(-c2ccc3nccnc3c2)c(=O)n(-c2ccc(Cl)cc2)c2nc(C(F)(F)F)ccc12 [Example 36] the “Apparent clearance rate Cl” value ([1]; IV 2 mg/kg) was 1.03 mL/min/kg, the AUC(0-t) ([1]; mouse, IV 2 mg/kg) was 31700 ng·h/mL and the half-life ([1]; mouse, IV 2 mg/kg, read-out: Half life T1/2 (converted)) was 5.53 h. It also gave a Cmax ([1]; mouse, IV 2 mg/kg) of 3540 ng/mL, an AUC(0-t) ([1]; mouse, PO 10 mg/kg) of 211000 ng·h/mL and a half-life ([1]; mouse, PO 10 mg/kg, read-out: Half life t1/2 (converted)) of 9.32 h. For the same compound, the Cmax ([1]; mouse, PO 10 mg/kg) was 18100 ng/mL, the bioavailability ([1]; mouse, PO 10 mg/kg vs IV 2 mg/kg, read-out: Bioavailability F %) was 133% and the “Apparent clearance rate Cl” value ([2]; IV 1 mg/kg) was 0.745 mL/min/kg. For the same compound, the AUC(0-t) ([2]; IV 1 mg/kg) was 17600 ng·h/mL, the half-life ([2]; IV 1 mg/kg) was 5.8 h and the Cmax ([2]; IV 1 mg/kg) was 2710 ng/mL. For the same compound, the AUC(0-t) ([2]; PO 5 mg/kg) was 67100 ng·h/mL, the half-life ([2]; PO 5 mg/kg) was 9.14 h and the Cmax ([2]; PO 5 mg/kg) was 4140 ng/mL. For the same compound, the bioavailability ([2]; PO 5 mg/kg vs IV 1 mg/kg, read-out: Bioavailability F %) was 76.3% and the IC50 (DOHH-2 cells) was 7 nM.
